The results in this text go back to PMC12808100, “The non-catalytic DNA polymerase ε subunit is an NPF motif recognition protein” (Nature Communications, 2025).

Structures are written as SMILES. Residues, ends and D or L forms follow the SMILES beside them.

Assay [1] deals with T1, EHD1 (Homo sapiens, UniProt Q9H4M9).
T1 sequence (Q9H4M9 1-534): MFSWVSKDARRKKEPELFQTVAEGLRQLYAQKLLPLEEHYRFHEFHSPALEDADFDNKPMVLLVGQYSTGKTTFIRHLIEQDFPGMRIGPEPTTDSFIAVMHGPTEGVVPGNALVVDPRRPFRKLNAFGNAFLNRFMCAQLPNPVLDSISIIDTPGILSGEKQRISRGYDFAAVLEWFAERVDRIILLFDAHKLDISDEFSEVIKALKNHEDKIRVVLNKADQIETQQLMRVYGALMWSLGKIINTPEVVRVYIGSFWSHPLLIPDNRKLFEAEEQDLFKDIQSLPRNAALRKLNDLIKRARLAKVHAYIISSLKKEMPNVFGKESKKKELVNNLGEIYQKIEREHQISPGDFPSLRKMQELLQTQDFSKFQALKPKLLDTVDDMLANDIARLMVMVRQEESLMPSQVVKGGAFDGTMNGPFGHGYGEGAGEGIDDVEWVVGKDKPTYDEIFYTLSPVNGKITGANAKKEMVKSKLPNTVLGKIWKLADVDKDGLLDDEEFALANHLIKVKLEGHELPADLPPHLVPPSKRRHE
Description: nHU-MS peptide bait, prey EHD1. To be noted: for BI: prey EHD1, MS7_Varjosalo.

The target of assay [2] is CCDC174 (Homo sapiens, UniProt Q6PII3). Kind of assay: nHU-MS peptide bait, prey CCDC174.
Assay [3] deals with PLEK (Homo sapiens, UniProt P08567). Description: nHU-MS peptide bait, prey PLEK.
The target in assay [4] is SSBP4 (Homo sapiens, UniProt Q86U70+Q9BWG4). Kind of assay: nHU-MS peptide bait, prey SSBP4.
The target of assay [5] is SSBP2 (Homo sapiens, UniProt P81877+Q86U70). Kind of assay: nHU-MS peptide bait, prey SSBP2.
In assay [6] the target is AURKA (Homo sapiens, UniProt O14965). Kind of assay: nHU-MS peptide bait, prey AURKA.
Assay [7] addresses T2, PPP2R2A (Homo sapiens, UniProt P63151).
T2 sequence (P63151 1-447): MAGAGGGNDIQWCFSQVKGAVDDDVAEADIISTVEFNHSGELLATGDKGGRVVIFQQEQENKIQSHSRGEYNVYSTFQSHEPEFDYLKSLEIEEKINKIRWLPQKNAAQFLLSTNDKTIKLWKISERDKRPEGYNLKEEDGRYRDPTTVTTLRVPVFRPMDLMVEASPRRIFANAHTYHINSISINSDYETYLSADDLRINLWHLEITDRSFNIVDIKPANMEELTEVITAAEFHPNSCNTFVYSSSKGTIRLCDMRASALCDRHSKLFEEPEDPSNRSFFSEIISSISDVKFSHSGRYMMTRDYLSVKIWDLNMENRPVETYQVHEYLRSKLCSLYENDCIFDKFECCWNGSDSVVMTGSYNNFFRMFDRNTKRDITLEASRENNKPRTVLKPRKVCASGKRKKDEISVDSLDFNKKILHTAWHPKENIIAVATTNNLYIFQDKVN
Kind of assay: nHU-MS peptide bait, prey PPP2R2A. The note with it: for Kd: pKapp.

The target of assay [8] is HSPA5 (Homo sapiens, UniProt P11021). Description: nHU-MS peptide bait, prey HSPA5.
Chain of HSPA5 (P11021 19-654): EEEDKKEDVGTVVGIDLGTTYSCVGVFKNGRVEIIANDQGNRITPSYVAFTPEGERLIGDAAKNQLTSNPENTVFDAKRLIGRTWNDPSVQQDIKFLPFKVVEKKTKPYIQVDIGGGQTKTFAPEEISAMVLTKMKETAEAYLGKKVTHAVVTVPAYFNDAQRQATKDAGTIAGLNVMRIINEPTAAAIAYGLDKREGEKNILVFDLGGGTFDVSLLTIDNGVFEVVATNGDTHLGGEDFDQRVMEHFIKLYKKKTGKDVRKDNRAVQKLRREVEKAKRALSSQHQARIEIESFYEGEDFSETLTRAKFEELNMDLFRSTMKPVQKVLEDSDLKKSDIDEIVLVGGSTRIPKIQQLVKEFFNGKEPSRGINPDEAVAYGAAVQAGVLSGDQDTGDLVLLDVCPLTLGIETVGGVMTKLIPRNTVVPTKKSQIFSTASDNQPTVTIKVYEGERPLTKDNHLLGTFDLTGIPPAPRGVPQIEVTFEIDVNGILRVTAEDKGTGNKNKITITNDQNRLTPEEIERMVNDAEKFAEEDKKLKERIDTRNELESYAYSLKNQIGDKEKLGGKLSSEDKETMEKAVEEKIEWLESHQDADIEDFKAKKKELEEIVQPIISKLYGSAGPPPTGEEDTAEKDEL

Chain of PLEK (P08567 whole entry): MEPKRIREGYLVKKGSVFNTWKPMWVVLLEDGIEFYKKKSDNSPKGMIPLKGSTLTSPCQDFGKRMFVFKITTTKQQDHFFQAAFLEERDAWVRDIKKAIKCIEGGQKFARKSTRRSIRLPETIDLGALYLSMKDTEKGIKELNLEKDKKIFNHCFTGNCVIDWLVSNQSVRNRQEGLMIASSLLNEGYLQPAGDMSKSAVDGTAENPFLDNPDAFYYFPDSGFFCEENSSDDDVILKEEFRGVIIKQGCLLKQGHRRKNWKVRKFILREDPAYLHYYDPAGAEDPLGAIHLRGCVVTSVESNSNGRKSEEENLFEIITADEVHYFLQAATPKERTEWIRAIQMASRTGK
Chain of AURKA (O14965 whole entry): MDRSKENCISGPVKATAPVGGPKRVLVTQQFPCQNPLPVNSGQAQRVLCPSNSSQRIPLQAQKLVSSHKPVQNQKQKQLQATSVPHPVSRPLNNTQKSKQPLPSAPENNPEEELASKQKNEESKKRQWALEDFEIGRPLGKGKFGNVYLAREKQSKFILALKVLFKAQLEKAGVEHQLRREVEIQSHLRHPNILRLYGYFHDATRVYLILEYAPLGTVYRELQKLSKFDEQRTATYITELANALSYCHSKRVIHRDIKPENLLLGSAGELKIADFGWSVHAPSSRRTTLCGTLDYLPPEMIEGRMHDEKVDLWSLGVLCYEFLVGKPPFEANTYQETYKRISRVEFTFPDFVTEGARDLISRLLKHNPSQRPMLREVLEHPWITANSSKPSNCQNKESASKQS
Chain of CCDC174 (Q6PII3 whole entry): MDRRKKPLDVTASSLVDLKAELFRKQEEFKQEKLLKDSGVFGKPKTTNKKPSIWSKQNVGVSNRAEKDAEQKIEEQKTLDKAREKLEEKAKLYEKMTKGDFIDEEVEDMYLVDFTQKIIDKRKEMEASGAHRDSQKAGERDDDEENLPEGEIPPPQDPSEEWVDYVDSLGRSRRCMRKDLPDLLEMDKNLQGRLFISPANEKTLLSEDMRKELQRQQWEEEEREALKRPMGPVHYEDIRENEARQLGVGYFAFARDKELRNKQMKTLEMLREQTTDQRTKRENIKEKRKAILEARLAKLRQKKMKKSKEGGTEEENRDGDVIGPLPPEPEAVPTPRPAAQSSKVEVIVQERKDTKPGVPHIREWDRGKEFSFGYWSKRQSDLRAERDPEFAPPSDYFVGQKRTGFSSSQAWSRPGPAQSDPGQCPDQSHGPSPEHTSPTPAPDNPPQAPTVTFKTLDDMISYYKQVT
Chain of SSBP2 (P81877 whole entry): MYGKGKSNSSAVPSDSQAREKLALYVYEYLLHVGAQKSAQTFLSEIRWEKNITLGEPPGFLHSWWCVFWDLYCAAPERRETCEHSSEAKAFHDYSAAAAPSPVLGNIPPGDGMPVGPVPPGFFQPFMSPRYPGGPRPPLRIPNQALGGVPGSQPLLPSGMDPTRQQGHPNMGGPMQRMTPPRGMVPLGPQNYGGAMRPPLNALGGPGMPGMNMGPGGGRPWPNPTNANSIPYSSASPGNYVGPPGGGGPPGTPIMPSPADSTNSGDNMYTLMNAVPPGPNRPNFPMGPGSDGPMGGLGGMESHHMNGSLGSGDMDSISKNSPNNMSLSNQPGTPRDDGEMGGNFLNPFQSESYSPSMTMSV
Chain of SSBP2 (Q86U70 whole entry): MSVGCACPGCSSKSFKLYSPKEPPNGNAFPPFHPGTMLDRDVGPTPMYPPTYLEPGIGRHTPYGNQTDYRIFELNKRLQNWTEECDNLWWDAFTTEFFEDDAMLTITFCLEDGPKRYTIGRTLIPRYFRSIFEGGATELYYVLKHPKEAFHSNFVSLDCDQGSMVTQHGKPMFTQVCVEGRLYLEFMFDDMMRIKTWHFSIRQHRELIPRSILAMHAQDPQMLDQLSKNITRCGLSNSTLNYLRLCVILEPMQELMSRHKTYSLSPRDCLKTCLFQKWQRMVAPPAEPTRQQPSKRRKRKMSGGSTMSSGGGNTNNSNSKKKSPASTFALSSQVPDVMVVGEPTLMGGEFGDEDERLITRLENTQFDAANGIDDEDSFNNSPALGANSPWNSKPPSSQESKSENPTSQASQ
Chain of SSBP4 (Q9BWG4 whole entry): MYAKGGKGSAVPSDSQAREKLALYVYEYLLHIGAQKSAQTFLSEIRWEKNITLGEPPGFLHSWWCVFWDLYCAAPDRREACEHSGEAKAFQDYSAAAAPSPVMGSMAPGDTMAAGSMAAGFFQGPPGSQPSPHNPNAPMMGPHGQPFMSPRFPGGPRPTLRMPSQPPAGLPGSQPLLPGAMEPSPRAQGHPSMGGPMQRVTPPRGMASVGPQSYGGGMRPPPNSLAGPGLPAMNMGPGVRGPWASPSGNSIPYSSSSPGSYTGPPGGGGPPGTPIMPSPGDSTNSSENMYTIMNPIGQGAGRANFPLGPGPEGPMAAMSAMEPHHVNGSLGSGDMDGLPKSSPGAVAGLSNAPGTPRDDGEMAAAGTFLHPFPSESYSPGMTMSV
Chain of SSBP4 (Q86U70 whole entry): as the sequence (Q86U70 whole entry) above

`CC[C@H](C)[C@H](NC(=O)[C@@H](N)CCCNC(=N)N)C(=O)N1CCC[C@H]1C(=O)N[C@H](C(=O)N[C@@H](CC(C)C)C(=O)N[C@@H](CC(N)=O)C(=O)N1CCC[C@H]1C(=O)N[C@@H](Cc1ccccc1)C(=O)N[C@@H](CCC(=O)O)C(=O)N[C@@H](CO)C(=O)N1CCC[C@H]1C(=O)N[C@@H](CO)C(=O)N[C@@H](CC(=O)O)C(=O)N[C@@H](Cc1ccc(O)cc1)C(=O)N[C@@H](CO)C(=O)N[C@@H](CC(N)=O)C(=O)N[C@@H](CC(C)C)C(=O)N[C@@H](Cc1c[nH]cn1)C(=O)N[C@@H](CCC(=O)O)C(=O)N[C@@H](CCC(N)=O)C(=O)N[C@H](C(N)=O)[C@@H](C)O)C(C)C` [BORA] (H-RIPVLNPFESPSDYSNLHEQT-NH2): the dissociation constant Kd in assay [1] is 39.4 µM; in assay [2] it was 10.9 µM; in assay [3], 9.44 µM. Also, the BI was 0.2025 in assay [1]; 0.4787 in assay [2] (prey CCDC174, MS7_Varjosalo); 0.5145 in assay [3] (prey PLEK, MS7_Varjosalo).
Turning to `CSCC[C@H](NC(=O)[C@@H]1CCCN1C(=O)[C@@H](NC(=O)[C@@H]1CCCN1C(=O)[C@@H]1CCCN1C(=O)[C@@H]1CCCN1C(=O)[C@H](C)NC(=O)[C@H](Cc1ccccc1)NC(=O)[C@H](CCC(=O)O)NC(=O)[C@@H](NC(=O)[C@H](CC(C)C)NC(=O)[C@@H](N)Cc1c[nH]cn1)[C@@H](C)O)[C@@H](C)O)C(=O)N[C@H](C(=O)N[C@@H](CC(=O)O)C(=O)N[C@@H](Cc1c[nH]cn1)C(=O)N[C@@H](CC(C)C)C(=O)N[C@H](C(=O)N[C@@H](C)C(=O)N[C@@H](CO)C(=O)N[C@@H](CC(N)=O)C(=O)N1CCC[C@H]1C(=O)N[C@@H](Cc1ccccc1)C(=O)N[C@@H](CCC(=O)O)C(=O)N[C@@H](CC(=O)O)C(=O)N[C@@H](CC(=O)O)C(=O)N[C@@H](Cc1ccccc1)C(=O)NCC(=O)N[C@@H](C)C(=O)N1CCC[C@H]1C(=O)N[C@@H](CCCCN)C(N)=O)C(C)C)C(C)C` [PYGO2 57-86], the Kd was 12.2 µM in assay [4], 18.9 µM in assay [5] and 28.6 µM in assay [6]. Also, the BI in assay [4] (prey SSBP4, MS8_Varjosalo) is on record as 0.451; in assay [5] (prey SSBP2, MS8_Varjosalo), 0.3462; in assay [6] (prey AURKA, MS8_Varjosalo), 0.2591.
Consider `CC[C@H](C)[C@H](NC(=O)[C@H](Cc1ccccc1)NC(=O)[C@@H]1CCCN1C(=O)[C@H](CC(N)=O)NC(=O)[C@@H]1CCCN1C(=O)[C@H](CO)NC(=O)[C@H](CO)NC(=O)[C@@H](N)CCCNC(=N)N)C(=O)N[C@H](C(=O)NCC(=O)N[C@@H](CC(C)C)C(=O)N[C@H](C(=O)N[C@@H](CCCNC(=N)N)C(=O)N[C@H](C(=O)N[C@@H](CC(N)=O)C(=O)N1CCC[C@H]1C(=O)N[C@@H](Cc1ccccc1)C(=O)N[C@@H](CO)C(=O)N[C@@H](CC(=O)O)C(=O)N[C@@H](CCCNC(=N)N)C(=O)N[C@H](C(=O)N[C@@H](C)C(=O)N[C@@H](C)C(=O)N1CCC[C@H]1C(=O)NCC(=O)N[C@@H](CC(N)=O)C(=O)N1CCC[C@H]1C(=O)N[C@@H](Cc1ccccc1)C(=O)N[C@@H](CCCNC(=N)N)C(=O)N[C@@H](C)C(=O)N[C@@H](CCCCN)C(=O)N[C@@H](CO)C(N)=O)[C@@H](C)O)[C@@H](C)O)[C@@H](C)O)[C@@H](C)O` [SYNJ1_1390-1421] (H-RSSPNPFITGLTRTNPFSDRTAAPGNPFRAKS-NH2), for which the dissociation constant (Kd) in assay [1] was 24.3 µM; in assay [7] (MS5_Varjosalo) it was 33.3 µM; in assay [7] (MS7_Varjosalo), 29.9 µM; in assay [8], 19.9 µM. The BI in assay [1] worked out at 0.2916; in assay [7] (MS5_Varjosalo) it was 0.2309; in assay [7] (MS7_Varjosalo), 0.2507; in assay [8] (prey HSPA5, MS5_Varjosalo), 0.3347.

Broadly, the Kd is the equilibrium constant for the complex coming apart. Read a low Kd as a tighter complex.
